Test results published in patent US11332459B2 (TEIJIN PHARMA LIMITED, priority 2017, dated 2022).
Where a name gives a salt, the structure may show the parent alone.

Target: T1, human TRPC6 (Homo sapiens, UniProt Q9Y210)
T1 construct: expressed in transfected cells
T1 sequence (Q9Y210 1-931): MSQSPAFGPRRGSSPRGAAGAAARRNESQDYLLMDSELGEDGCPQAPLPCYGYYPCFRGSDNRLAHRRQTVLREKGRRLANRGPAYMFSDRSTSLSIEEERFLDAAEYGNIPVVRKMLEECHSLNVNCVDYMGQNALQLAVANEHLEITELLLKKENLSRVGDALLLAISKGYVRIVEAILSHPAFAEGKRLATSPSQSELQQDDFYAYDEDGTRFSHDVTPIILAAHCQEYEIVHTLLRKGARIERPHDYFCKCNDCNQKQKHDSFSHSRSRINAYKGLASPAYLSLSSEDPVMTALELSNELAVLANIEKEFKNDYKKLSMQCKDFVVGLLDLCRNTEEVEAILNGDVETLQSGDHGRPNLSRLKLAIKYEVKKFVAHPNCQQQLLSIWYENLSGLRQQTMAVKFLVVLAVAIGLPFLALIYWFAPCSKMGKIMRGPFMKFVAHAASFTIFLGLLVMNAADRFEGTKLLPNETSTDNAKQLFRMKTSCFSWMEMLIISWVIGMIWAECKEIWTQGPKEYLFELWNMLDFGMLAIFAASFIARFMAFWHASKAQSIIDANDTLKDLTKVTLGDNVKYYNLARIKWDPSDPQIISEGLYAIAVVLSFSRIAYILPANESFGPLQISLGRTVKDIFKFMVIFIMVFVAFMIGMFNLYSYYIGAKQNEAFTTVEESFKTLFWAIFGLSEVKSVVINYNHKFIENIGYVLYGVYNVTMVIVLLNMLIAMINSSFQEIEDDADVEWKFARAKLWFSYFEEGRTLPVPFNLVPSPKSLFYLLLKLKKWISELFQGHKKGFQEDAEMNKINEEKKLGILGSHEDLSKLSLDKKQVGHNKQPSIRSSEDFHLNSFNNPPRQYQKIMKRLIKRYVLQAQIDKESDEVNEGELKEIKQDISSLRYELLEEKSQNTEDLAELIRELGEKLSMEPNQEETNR
Test: TRPC6 calcium flux assay (FLIPR, OAG-stimulated calcium influx)
Format: cell-based
Conditions: HEK293 cells stably transfected with human TRPC6, read-out: hTRPC6 Potency
Method in brief: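 IC50 derived by plotting background-corrected peak fluorescence (180 s window, normalized to OAG-triggered signal vs buffer) against dose. Stable human TRPC6 HEK293 line was dye-loaded, exposed to compound 25 min, then challenged with 50 uM final OAG in 2 mM Ca2+ HEPES buffer pH 7.2, 0.5% DMSO.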

IC50 [nM] | SMILES
5.09 | N#Cc1ccc(Cn2c(N3C[C@@H]4CC[C@@H](N)[C@@H]4C3)nc3ccccc32)nc1 [Example 79, 6-((2-((3aS,4R,6aR)-4-aminohexahydrocyclopenta[c]pyrrol-2(1H)-yl)-1H-benzo[d]imidazol-1-yl)methyl)nicotinonitrile hydrochloride]
6830 | N[C@@H]1CCCN(c2nc3ccccc3n2Cc2ccc(-n3cncn3)cc2)C1 [Example 371, (R)-1-(1-(4-(1H-1,2,4-triazol-1-yl)benzyl)-1H-benzo[d]imidazol-2-yl)piperidin-3-amine]
7.65 | C[C@@H](c1ccc(C#N)cn1)n1c(N2CCC[C@H](N)C2)nc2ccccc21 [Example 296, 6-((S)-1-(2-((S)-3-aminopiperidin-1-yl)-1H-benzo[d]imidazol-1-yl)ethyl)nicotinonitrile hydrochloride]
3570 | N[C@@H]1CCCN(c2nc3ccccc3n2Cc2ccc(F)c(F)c2)C1 [Example 390, (R)-1-(1-(3,4-difluorobenzyl)-1H-benzo[d]imidazol-2-yl)piperidin-3-amine]
3.06 | N#Cc1ccc(Cn2c(N3CCC(F)(F)[C@H](N)C3)nc3ccccc32)cc1 [Example 154, (R)-4-((2-(3-amino-4,4-difluoropiperidin-1-yl)-1H-benzo[d]imidazol-1-yl)methyl)benzonitrile]
143 | N#Cc1ccc(Cn2c(N3C[C@H]4C[C@@]4(CN)C3)nc3ccccc32)cc1 [Example 184, 4-((2-((1R,5S)-1-(aminomethyl)-3-azabicyclo[3.1.0]hexan-3-yl)-1H-benzo[d]imidazol-1-yl)methyl)benzonitrile]
0.707 | N#Cc1ccc2c(c1)CC[C@@H]2n1c(N2CCC[C@H](N)C2)nc2ccccc21 [Example 424, (S)-1-(2-((S)-3-aminopiperidin-1-yl)-1H-benzo[d]imidazol-1-yl)-2,3-dihydro-1H-indene-5-carbonitrile]
52.4 | NC(=O)c1ccc(Cn2c(N3CC[C@@H](F)[C@H](N)C3)nc3ccccc32)nc1 [Example 436, 6-((2-((3R,4R)-3-amino-4-fluoropiperidin-1-yl)-1H-benzo[d]imidazol-1-yl)methyl)nicotinamide]
0.261 | N#Cc1ccc(Cn2c(N3CCC(F)(F)[C@H](N)C3)nc3c(Cl)cc(Cl)cc32)nc1 [Example 60, (R)-6-((2-(3-amino-4,4-difluoropiperidin-1-yl)-4,6-dichloro-1H-benzo[d]imidazol-1-yl)methyl)nicotinonitrile]
1600 | N#Cc1ccc(Cn2c(N3CCC4(CCCC4N)C3)nc3ccccc32)cc1 (stereo not drawn) [Example 168, 4-((2-(6-amino-2-azaspiro[4.4]nonan-2-yl)-1H-benzo[d]imidazol-1-yl)methyl)benzonitrile]

More lines, now with the values behind:

SMILES | IC50 [nM]
N[C@@H]1CN(c2nc3cc(F)c(F)cc3n2CC(=O)N2CCC3CC32)CC[C@H]1F (mixture of isomers) [Example 609, 2-(2-((3R,4R)-3-amino-4-fluoropiperidin-1-yl)-5,6-difluoro-1H-benzo[d]imidazol-1-yl)-1-(2-azabicyclo[3.1.0]hexan-2-yl)ethanone] | 20.3
COCCN(C)C(=O)Cn1c(N2CC[C@@H](F)[C@H](N)C2)nc2ccc(F)cc21 [Example 663, 2-(2-((3R,4R)-3-amino-4-fluoropiperidin-1-yl)-6-fluoro-1H-benzo[d]imidazol-1-yl)-N-(2-methoxyethyl)-N-methylacetamide] | 294
N[C@@H]1CN(c2nc3cc(F)c(F)cc3n2CC(=O)N2CCC2)CC[C@H]1F [Example 236, 2-(2-((3R,4R)-3-amino-4-fluoropiperidin-1-yl)-5,6-difluoro-1H-benzo[d]imidazol-1-yl)-1-(azetidin-1-yl)ethanone] | 23.8
C[C@H](c1ccccn1)N(C)C(=O)Cn1c(N2CC[C@@H](F)[C@H](N)C2)nc2cc(F)c(F)cc21 [Example 604] | 7.78
N[C@@H]1CN(c2nc3cc(F)c(F)cc3n2Cc2ccc(C(F)F)cc2)CC[C@H]1F [Example 363, (3R,4R)-1-(1-(4-(difluoromethyl)benzyl)-5,6-difluoro-1H-benzimidazol-2-yl)-4-fluoro-3-piperidinamine] | 31.3
CO[C@@H]1CCN(c2nc3ccc(F)cc3n2Cc2ccc(C#N)cn2)C[C@H]1N [Example 451] | 0.613
CN(CC(F)(F)F)C(=O)Cn1c(N2CC[C@@H](F)[C@H](N)C2)nc2cc(F)ccc21 [Example 460, 2-(2-((3R,4R)-3-amino-4-fluoropiperidin-1-yl)-5-fluoro-1H-benzo[d]imidazol-1-yl)-N-methyl-N-(2,2,2-trifluoroethyl)acetamide] | 24.2
N#Cc1ccc2nc(N3CC[C@@H](F)[C@H](N)C3)n(Cc3ncc(F)cn3)c2c1 [Example 196, 2-((3R,4R)-3-amino-4-fluoropiperidin-1-yl)-1-((5-fluoropyrimidin-2-yl)methyl)-1H-benzo[d]imidazole-6-carbonitrile] | 6.47
N[C@@H]1CN(c2nc3ccc(C(F)(F)F)cc3n2CC(=O)N2CCC2)CC[C@@H]1F [Example 308, 2-(2-((3R,4S)-3-amino-4-fluoropiperidin-1-yl)-6-(trifluoromethyl)-1H-benzo[d]imidazol-1-yl)-1-(azetidin-1-yl)ethan-1-one] | > 3750
CN(CC(F)(F)F)C(=O)Cn1c(N2CC[C@@H](N)C2)nc2ccc(F)cc21 [Example 490, (R)-2-(2-(3-aminopyrrolidin-1-yl)-6-fluoro-1H-benzo[d]imidazol-1-yl)-N-methyl-N-(2,2,2-trifluoroethyl)acetamide] | > 3750
N[C@@H]1CN(c2nc3cc(F)c(F)cc3n2Cc2cc(Cl)ccc2OC(F)(F)F)CC[C@H]1F [Example 338, (3R,4R)-1-(1-(5-chloro-2-2-(trifluoromethoxy)benzyl)-5,6-difluoro-1H-benzimidazol-2-yl)-4-fluoro-3-piperidinamine] | > 3750
N[C@@H]1CN(c2nc3cc(OC(F)(F)F)ccc3n2CC(=O)N2CCOCC2)CC[C@H]1F [Example 475, 2-(2-((3R,4R)-3-amino-4-fluoropiperidin-1-yl)-5-(trifluoromethoxy)-1H-benzo[d]imidazol-1-yl)-1-morpholinoethan-1-one] | 620
N#Cc1cc(F)cc2c1nc(N1CC[C@@H](F)[C@H](N)C1)n2Cc1ncc(F)cn1 [Example 37, 2-((3R,4R)-3-amino-4-fluoropiperidin-1-yl)-6-fluoro-1-((5-fluoropyrimidin-2-yl)methyl)-1H-benzo[d]imidazole-4-carbonitrile] | 6.92
N[C@@H]1CN(c2nc3cc(F)c(F)cc3n2Cc2ccc(F)cc2F)CC[C@H]1F [Example 351, (3R,4R)-1-(1-(2,4-difluorobenzyl)-5,6-difluoro-1H-benzimidazol-2-yl)-4-fluoro-3-piperidinamine] | 10.3
CN(CC(F)(F)F)C(=O)Cn1c(N2CC[C@@H](F)[C@H](N)C2)nc2c(F)cc(F)cc21 [Example 558, 2-(2-((3R,4R)-3-amino-4-fluoropiperidin-1-yl)-4,6-difluoro-1H-benzo[d]imidazol-1-yl)-N-methyl-N-(2,2,2-trifluoroethyl)acetamide] | 16.1
C[C@@H](c1ccc(C#N)cn1)n1c(N2CC[C@@H]3OCCN[C@H]3C2)nc2c(F)cc(F)cc21 [Example 269, 6-((1S)-1-(4,6-difluoro-2-((4aS,8aS)-hexahydro-2H-pyrido[4,3-b][1,4]oxazin-6(5H)-yl)-1H-benzimidazol-1-yl)ethyl)-3-pyridinecarbonitrile] | 2.04
CN(C(=O)Cn1c(N2CC[C@@H](F)[C@H](N)C2)nc2cc(F)c(F)cc21)[C@H]1CC[C@H](O)CC1 [Example 637, 2-(2-((3R,4R)-3-amino-4-fluoropiperidin-1-yl)-5,6-difluoro-1H-benzo[d]imidazol-1-yl)-N-((1r,4R)-4-hydroxycyclohexyl)-N-methylacetamide] | 341
C[C@@H](c1ccc(Cl)c(Cl)c1)n1c(N2CC[C@@H](F)[C@H](N)C2)nc2cc(F)c(F)cc21 [Example 333, (3R,4R)-1-(1-((1S)-1-(3,4-dichlorophenyl)ethyl)-5,6-difluoro-1H-benzimidazol-2-yl)-4-fluoro-3-piperidinamine] | 3250
COc1cccc2c1nc(N1CC[C@@H](F)[C@H](N)C1)n2Cc1ccc(C#N)cn1 [Example 120, 6-((2-((3R,4R)-3-amino-4-fluoro-1-piperidinyl)-4-methoxy-1H-benzimidazol-1-yl)methyl)-3-pyridinecarbonitrile] | 3.21
N#Cc1ccc(Cn2c(N3CC[C@@H](F)[C@H](N)C3)nc3ncc(Cl)cc32)nc1 [Example 93, 6-((2-((3R,4R)-3-amino-4-fluoropiperidin-1-yl)-6-chloro-1H-imidazo[4,5-b]pyridin-1-yl)methyl)nicotinonitrile] | 6.85
